Biological target: T1, ITK (Homo sapiens, UniProt Q08881)
T1 construct: purchased Invitrogen PV3875
T1 sequence (Q08881 1-620): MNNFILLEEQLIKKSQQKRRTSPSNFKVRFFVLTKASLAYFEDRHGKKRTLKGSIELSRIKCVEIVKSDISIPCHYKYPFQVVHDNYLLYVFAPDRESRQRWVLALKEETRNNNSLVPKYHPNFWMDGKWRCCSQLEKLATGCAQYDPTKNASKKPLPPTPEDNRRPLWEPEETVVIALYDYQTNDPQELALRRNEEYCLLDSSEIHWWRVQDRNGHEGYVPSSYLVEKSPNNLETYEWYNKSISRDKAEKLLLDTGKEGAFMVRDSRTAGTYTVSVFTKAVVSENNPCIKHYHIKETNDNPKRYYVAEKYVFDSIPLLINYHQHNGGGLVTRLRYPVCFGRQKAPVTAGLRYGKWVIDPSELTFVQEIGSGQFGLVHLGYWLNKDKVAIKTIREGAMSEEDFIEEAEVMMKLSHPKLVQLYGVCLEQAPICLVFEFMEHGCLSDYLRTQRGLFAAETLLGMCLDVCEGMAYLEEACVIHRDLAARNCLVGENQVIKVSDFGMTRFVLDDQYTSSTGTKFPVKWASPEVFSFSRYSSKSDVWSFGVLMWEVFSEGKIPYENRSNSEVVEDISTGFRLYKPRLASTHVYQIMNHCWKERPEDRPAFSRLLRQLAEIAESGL
Assay: ITK enzyme assay (Caliper or LCMS peptide phosphorylation)
Format: biochemical
Conditions: purified ITK (Invitrogen PV3875), 20 μM ATP, Ki by Morrison's quadratic equation
Summary of the method: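 Ki values come from Morrison quadratic fits of activity versus inhibitor concentration, adjusted for ATP-competitive inhibition against ATP/Km,app. Substrate and phosphopeptide from purified ITK reactions were resolved either microfluidically (Caliper, EDTA stop) or by LC-MS MRM (TCA stop).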

| SMILES | Ki [nM] |
| --- | --- |
| CC1(C)CCc2c(C(=O)Nc3cnn(C(CN4CCOCC4=O)c4ccccc4)c3)n[nH]c2C1 (single isomer, unassigned) [Example 77a, 6,6-dimethyl-N-(1-(2-(3-oxomorpholino)-1-phenylethyl)-1H-pyrazol-4-yl)-4,5,6,7-tetrahydro-1H-indazole-3-carboxamide] | 20 |
| CC1(C)CCc2c(C(=O)Nc3cnn(C(CN4CCOCC4=O)c4ccccc4)c3)n[nH]c2C1 (single isomer, unassigned) [Example 77b, 6,6-dimethyl-N-(1-(2-(3-oxomorpholino)-1-phenylethyl)-1H-pyrazol-4-yl)-4,5,6,7-tetrahydro-1H-indazole-3-carboxamide] | 2 |
| CC(C1CCOCC1)n1cc(NC(=O)c2n[nH]c3c2CCC(C)(C)C3)cn1 (single isomer, unassigned) [Example 78a, 6,6-dimethyl-N-(1-(1-(tetrahydro-2H-pyran-4-yl)ethyl)-1H-pyrazol-4-yl)-4,5,6,7-tetrahydro-1H-indazole-3-carboxamide] | 26 |
| CC(C1CCOCC1)n1cc(NC(=O)c2n[nH]c3c2CCC(C)(C)C3)cn1 (single isomer, unassigned) [Example 78b, 6,6-dimethyl-N-(1-(1-(tetrahydro-2H-pyran-4-yl)ethyl)-1H-pyrazol-4-yl)-4,5,6,7-tetrahydro-1H-indazole-3-carboxamide] | 6 |
| O=C(Nc1cnn(Cc2ccccc2)c1)c1n[nH]c2c1CC1(CCOC1)C2 (single isomer, unassigned) [Example 79a, N-(1-benzyl-1H-pyrazol-4-yl)-4,4′,5′,6-tetrahydro-1H,2′H-spiro[cyclopenta[c]pyrazole-5,3′-furan]-3-carboxamide] | 46 |
| O=C(Nc1cnn(Cc2ccccc2)c1)c1n[nH]c2c1CC1(CCOC1)C2 (single isomer, unassigned) [Example 79b, N-(1-benzyl-1H-pyrazol-4-yl)-4,4′,5′,6-tetrahydro-1H,2′H-spiro[cyclopenta[c]pyrazole-5,3′-furan]-3-carboxamide] | 95 |
| CC1(C)CCc2c(C(=O)Nc3cnn(C(CCC#N)c4cccnc4)c3)n[nH]c2C1 (single isomer, unassigned) [Example 80a, N-(1-(3-cyano-1-(pyridin-3-yl)propyl)-1H-pyrazol-4-yl)-6,6-dimethyl-4,5,6,7-tetrahydro-1H-indazole-3-carboxamide] | 2 |
| CC1(C)CCc2c(C(=O)Nc3cnn(C(CCC#N)c4cccnc4)c3)n[nH]c2C1 (single isomer, unassigned) [Example 80b, N-(1-(3-cyano-1-(pyridin-3-yl)propyl)-1H-pyrazol-4-yl)-6,6-dimethyl-4,5,6,7-tetrahydro-1H-indazole-3-carboxamide] | 2 |
| CC1(C)CCc2c(C(=O)Nc3cnn(C(CO)c4cccnc4)c3)n[nH]c2C1 (single isomer, unassigned) [Example 81a, N-(1-(2-hydroxy-1-(pyridin-3-yl)ethyl)-1H-pyrazol-4-yl)-6,6-dimethyl-4,5,6,7-tetrahydro-1H-indazole-3-carboxamide] | 17 |
| CC1(C)CCc2c(C(=O)Nc3cnn(C(CO)c4cccnc4)c3)n[nH]c2C1 (single isomer, unassigned) [Example 81b, N-(1-(2-hydroxy-1-(pyridin-3-yl)ethyl)-1H-pyrazol-4-yl)-6,6-dimethyl-4,5,6,7-tetrahydro-1H-indazole-3-carboxamide] | 3 |
| CC(c1cscn1)n1cc(NC(=O)c2n[nH]c3c2CCC(C)(C)C3)cn1 (single isomer, unassigned) [Example 84a, 6,6-dimethyl-N-(1-(1-(thiazol-4-yl)ethyl)-1H-pyrazol-4-yl)-4,5,6,7-tetrahydro-1H-indazole-3-carboxamide] | 46 |
| CC(c1cscn1)n1cc(NC(=O)c2n[nH]c3c2CCC(C)(C)C3)cn1 (single isomer, unassigned) [Example 84b, 6,6-dimethyl-N-(1-(1-(thiazol-4-yl)ethyl)-1H-pyrazol-4-yl)-4,5,6,7-tetrahydro-1H-indazole-3-carboxamide] | 13 |
| CC1(C)CCc2c(C(=O)Nc3cnn(C(c4nccs4)C4CCSCC4)c3)n[nH]c2C1 (single isomer, unassigned) [Example 85a, 6,6-dimethyl-N-(1-((tetrahydro-2H-thiopyran-4-yl)(thiazol-2-yl)methyl)-1H-pyrazol-4-yl)-4,5,6,7-tetrahydro-1H-indazole-3-carboxamide] | 0.6 |
| CC1(C)CCc2c(C(=O)Nc3cnn(C(c4nccs4)C4CCSCC4)c3)n[nH]c2C1 (single isomer, unassigned) [Example 85b, 6,6-dimethyl-N-(1-((tetrahydro-2H-thiopyran-4-yl)(thiazol-2-yl)methyl)-1H-pyrazol-4-yl)-4,5,6,7-tetrahydro-1H-indazole-3-carboxamide] | 0.9 |
| CC1(C)CCc2c(C(=O)Nc3cnn(C(c4nccs4)C4CCS(=O)(=O)CC4)c3)n[nH]c2C1 (single isomer, unassigned) [Example 87a, N-(1-((1,1-dioxidotetrahydro-2H-thiopyran-4-yl)(thiazol-2-yl)methyl)-1H-pyrazol-4-yl)-6,6-dimethyl-4,5,6,7-tetrahydro-1H-indazole-3-carboxamide] | 0.4 |
| CC1(C)CCc2c(C(=O)Nc3cnn(C(c4nccs4)C4CCS(=O)(=O)CC4)c3)n[nH]c2C1 (single isomer, unassigned) [Example 87b, N-(1-((1,1-dioxidotetrahydro-2H-thiopyran-4-yl)(thiazol-2-yl)methyl)-1H-pyrazol-4-yl)-6,6-dimethyl-4,5,6,7-tetrahydro-1H-indazole-3-carboxamide] | 1 |
| CC1(C)CCc2c(C(=O)Nc3cnn(C(c4cccnc4)C4CCOCC4)c3)n[nH]c2C1 (single isomer, unassigned) [Example 88a, 6,6-dimethyl-N-(1-(pyridin-3-yl(tetrahydro-2H-pyran-4-yl)methyl)-1H-pyrazol-4-yl)-4,5,6,7-tetrahydro-1H-indazole-3-carboxamide] | 0.1 |
| CC1(C)CCc2c(C(=O)Nc3cnn(C(c4cccnc4)C4CCOCC4)c3)n[nH]c2C1 (single isomer, unassigned) [Example 88b, 6,6-dimethyl-N-(1-(pyridin-3-yl(tetrahydro-2H-pyran-4-yl)methyl)-1H-pyrazol-4-yl)-4,5,6,7-tetrahydro-1H-indazole-3-carboxamide] | 0.7 |
| CC1(C)CCc2c(C(=O)Nc3cnn(C(c4ccccc4)C4CS(=O)(=O)C4)c3)n[nH]c2C1 (single isomer, unassigned) [Example 89a] | 0.2 |

More lines, now with the values ahead:

| Ki [nM] | SMILES |
| --- | --- |
| 4 | CC1(C)CCc2c(C(=O)Nc3cnn(C(c4ccccc4)C4CS(=O)(=O)C4)c3)n[nH]c2C1 (single isomer, unassigned) [Example 89b] |
| 570 | CC1(C)Cc2[nH]nc(C(=O)Nc3cnn(Cc4ccccc4)c3)c2CC1C#N (single isomer, unassigned) [Example 90a, N-(1-benzyl-1H-pyrazol-4-yl)-5-cyano-6,6-dimethyl-4,5,6,7-tetrahydro-1H-indazole-3-carboxamide] |
| 10 | CC1(C)Cc2[nH]nc(C(=O)Nc3cnn(Cc4ccccc4)c3)c2CC1C#N (single isomer, unassigned) [Example 90b, N-(1-benzyl-1H-pyrazol-4-yl)-5-cyano-6,6-dimethyl-4,5,6,7-tetrahydro-1H-indazole-3-carboxamide] |
| 11 | CC(c1cnn(C)c1)n1cc(NC(=O)c2n[nH]c3c2CCC(C)(C)C3)cn1 (single isomer, unassigned) [Example 91a, 6,6-dimethyl-N-(1-(1-(1-methyl-1H-pyrazol-4-yl)ethyl)-1H-pyrazol-4-yl)-4,5,6,7-tetrahydro-1H-indazole-3-carboxamide] |
| 19 | CC(c1cnn(C)c1)n1cc(NC(=O)c2n[nH]c3c2CCC(C)(C)C3)cn1 (single isomer, unassigned) [Example 91b, 6,6-dimethyl-N-(1-(1-(1-methyl-1H-pyrazol-4-yl)ethyl)-1H-pyrazol-4-yl)-4,5,6,7-tetrahydro-1H-indazole-3-carboxamide] |
| 7 | CC(c1nccs1)n1cc(NC(=O)c2n[nH]c3c2CCC(C)(C)C3)cn1 (single isomer, unassigned) [Example 92a, 6,6-dimethyl-N-(1-(1-(thiazol-2-yl)ethyl)-1H-pyrazol-4-yl)-4,5,6,7-tetrahydro-1H-indazole-3-carboxamide] |
| 10 | CC(c1nccs1)n1cc(NC(=O)c2n[nH]c3c2CCC(C)(C)C3)cn1 (single isomer, unassigned) [Example 92b, 6,6-dimethyl-N-(1-(1-(thiazol-2-yl)ethyl)-1H-pyrazol-4-yl)-4,5,6,7-tetrahydro-1H-indazole-3-carboxamide] |
| < 0.1 | CC12Cc3[nH]nc(C(=O)Nc4cnn(C(CS(C)(=O)=O)c5cccnc5)c4)c3CC1C2 (single isomer, unassigned) [Example 93a, 5a-methyl-N-(1-(2-(methylsulfonyl)-1-(pyridin-3-yl)ethyl)-1H-pyrazol-4-yl)-1,4,4a,5,5a,6-hexahydrocyclopropa[f]indazole-3-carboxamide] |

— US20160326142A1, “PYRAZOLE CARBOXAMIDE COMPOUNDS, COMPOSITIONS AND METHODS OF USE” (Genentech, Inc., priority 2012, published 2016)
